The source of these data is patent publication US5103018A, “Mitomycin derivatives” (Kyowa Hakko Kogyo Kabushiki Kaisha, priority 1986, dated 1992).

The test system of series [1] is Klebsiella pneumoniae ATCC 10031. The series is described as follows: microbe, parasite or virus in culture. It counts as cell-based. To be noted: ATCC10031, pH 7, read-out: minimum inhibitory concentration, KP. The text has this: Certain Compounds I were selected. […] In this table, the microorganisms used are abbreviated as follows:
KP: Klebsiella pneumoniae ATCC 10031

Series [2] concerns ddy mice. The series is described as follows: Acute toxicity. It counts as in vivo. To be noted: for C.I. (LD50/ED50) (in words): in comparison with mitomycin C. The protocol:
(§1) Certain compounds were selected from Compounds I. The following Table 4 indicates anti-tumour activity against Sarcoma 180 solid tumour (ED50), acute toxicity (LD50) and effects on the peripheral leucocytes (WBC4000) of each compound.
(§2) Each animal of the test group consisting of 5 ddy mice was once administered (i.p.) with a test compound. […] The LD50 was determined by Behren Korber's method.

The nature of series [3]: Acute toxicity. Type of series: in vivo, mice (ddy). To be noted: mouse, in vivo, ip; for LD50 at 336 h: ddy mice, single i.p., 14 days, Behren Korber's method; for selectivity ratio: read-out: (C.I.)* = (LD50/ED50)/[(LD50/ED50) of MMC1]. As for the experimental part: as §1, §2
Series [4] is described as follows: in vivo. It counts as in vivo, mice (ddy strain). To be noted: mouse, in vivo, ip; read-out: (WBC4000/ED50)* = (WBC4000/ED50)/[(WBC4000/ED50) of MMC1]. A digest of the protocol:
(§3)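 Male ddy mice (20±2 g, 5 per group) implanted subcutaneously with 5×10^6 Sarcoma 180 cells and given compound intra-abdominally 24 hours later. Leucocytes counted in suborbital blood 4 days after dosing. WBC4000 is the dose giving […], read from a plot of count vs log dose.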

Series [5] relates to peripheral leucocytes. Kind of series: in vivo. Type of series: in vivo, mice (ddy strain). Particulars: for WBC4000/ED50 (in words): in comparison with mitomycin C. In outline:
as §3

The subject of series [6] is Escherichia coli ATCC 26. Kind of series: Minimum inhibitory concentration, agar dilution method, EC. Particulars: Escherichia coli, ATCC26, pH 7, read-out: minimum inhibitory concentration, EC. It counts as cell-based. The text has this:
(§4) Certain Compounds I were selected. Table 3 indicates their anti-bacterial activities in terms of their minimum inhibitory concentration (μg/ml), determined by the agar dilution method effected at a pH of 7.0. In this table, the microorganisms used are abbreviated as follows:
EC: Escherichia coli ATCC 26

Series [7] relates to Sarcoma 180 solid tumour. Kind of series: animal or person. Particulars: for ED50: Mus musculus, Sarcoma-180, ip, 168 h, read-out: ED50 ip. It counts as in vivo, mice (ddy strain).
Series [8] has as its system P388 Leukemia. The series is described as follows: Effect upon Leukemia P 388. It counts as in vivo, mouse (CDF1). To be noted: single i.p., 33 days. The protocol:
(5) Effect upon Leukemia P 388:
Ascites cells were collected from P388 Leukemia-carrying mouse (DBA/2) 7 days after the implantation. The number of the cells of P388 Leukemia in the sample was counted. A physiological solution of sodium chloride was sterilized and used to prepare a cell suspension containing 5×10^6 tumour cells per ml. On each occasion, 0.2 ml of the suspension containing 1×10^6 cells was implanted into the abdominal cavity of each mouse (CDF1; body weight 20~25 g). 24 hours after implantation, the test compound was once given to each mouse of a test group consisting of 6 mice by abdominal injection.
The activity of the test samples was determined by the ratio of the average survival days of the treated animals to the average survival days of untreated animals viz. ILS % (Increased Life Span).

Series [9] relates to Proteus vulgaris ATCC 6897. Kind of series: Minimum inhibitory concentration, agar dilution method, PV. It counts as cell-based. To be noted: Proteus vulgaris, ATCC6897, pH 7, read-out: minimum inhibitory concentration, PV.
Description: as §4
PV: Proteus vulgaris ATCC 6897

The nature of series [10]: Equilibration between mitomycin-type and albomitomycin-type substance in aqueous solution. To be noted: aqueous solution (5 mg/ml), 25° C., 24 hours. It counts as physicochemical. The protocol:
In the case wherein the compound of Example 1 described hereinafter was equilibrated by allowing to stand in an aqueous solution (5 mg/ml) at a temperature of 25° C. for 24 hours, the molar ratio of the albomitomycin-type substance was 8.5%.

The test system of series [11] is Streptococcus faecalis ATCC 10541. Kind of series: Minimum inhibitory concentration, agar dilution method, SF. It counts as cell-based. Particulars: Enterococcus faecalis, ATCC10541, pH 7, read-out: minimum inhibitory concentration, SF.
Description: as §4
SF: Streptococcus faecalis ATCC 10541

Series [12] is described as follows: Solubility in water. To be noted: for solubility: water. It counts as physicochemical.
Series [13] deals with Staphylococcus aureus ATCC 6583P. Kind of series: Minimum inhibitory concentration, agar dilution method, SA. It counts as cell-based. To be noted: Staphylococcus aureus, ATCC6583P, pH 7, read-out: minimum inhibitory concentration, SA.
Description: as §4
SA: Staphylococcus aureus ATCC 6583P

Series [14] can be described thus: Lipophilicity. Type of series: physicochemical. To be noted: in comparison with mitomycin C.
Series [15] in a line: Stability of isolated compound. Type of series: physicochemical.

≈ marks a conversion by molar mass, not a printed value.

In the case of `CO[C@@]12[C@H](COC(N)=O)C3=C(C(=O)C(C)=C(NCCSSCCNC(=O)CC[C@H](N)C(=O)O)C3=O)N1C[C@@H]1N[C@@H]12` [Compound 1, 7-N-[2-[[2-(N^5 -L-glutamino)ethyl]dithio]ethyl]mitomycin C], the MIC was 0.4 µg/mL (≈ 0.668 µM) in series [1]; over 50 µg/mL in series [6]; 0.8 µg/mL (≈ 1.34 µM) in series [9]; 1.6 µg/mL (≈ 2.67 µM) in [11]; 0.8 µg/mL (≈ 1.34 µM) in series [13]. Besides, the “C.I. (LD50/ED50) (in words)” value in series [2] was “very high”. Also, in series [3], the LD50 at 336 h came out at 22.5 mg/kg. Further, the selectivity ratio in series [3] stood at 2.58; in series [4], 4.12. Moreover, the “WBC4000/ED50 (in words)” value in series [5] is “very high”. In addition, in series [7], the ED50 was found to be 2.7 mg/kg. Further, in [8] (dose 25 mg/kg), the “ILS* (ratio of ILS % to that of mitomycin C)” value is over 2.30. Moreover, the “molar ratio of the albomitomycin-type substance at equilibrium” value in series [10] was 8.5%. The “water-solubility (in words)” value in series [12] is recorded as “good”. The same compound had a solubility in [12] of over 20 mg/mL.
As for `CO[C@@]12[C@H](COC(N)=O)C3=C(C(=O)C(C)=C(NCCSSCCNC(=O)C[C@H](N)C(=O)O)C3=O)N1C[C@@H]1N[C@@H]12` [Compound 6, 7-N-[2-[[2-(N^4 -L-asparagino)ethyl]dithio]ethyl]mitomycin C], the MIC in series [1] is 0.8 µg/mL (≈ 1.37 µM); in series [6], over 50 µg/mL; in series [9], 0.8 µg/mL (≈ 1.37 µM); in series [11], 3.1 µg/mL (≈ 5.3 µM); in series [13] it was 0.8 µg/mL (≈ 1.37 µM). This compound yielded an LD50 at 336 h in [3] of 26.3 mg/kg. Moreover, the figures for the selectivity ratio in series [3] and in [4] were 1.81 and 2.38, respectively. In addition, the ED50 in [7] worked out at 5 mg/kg. The compound also returned a solubility in series [12] of over 20 mg/mL.
As for `CO[C@@]12[C@H](COC(N)=O)C3=C(C(=O)C(C)=C(NCCSSCCNC(=O)CC[C@@H](N)C(=O)O)C3=O)N1C[C@@H]1N[C@@H]12` [Compound 3, 7-N-[2-[[2-(N^5 -D-glutamino)ethyl]dithio]ethyl]mitomycin C], the MIC in [1] was 0.8 µg/mL (≈ 1.34 µM); in [6], 50 µg/mL (≈ 83.5 µM); in [9], 0.8 µg/mL (≈ 1.34 µM); in [11], 3.1 µg/mL (≈ 5.18 µM); in [13], 1.6 µg/mL (≈ 2.67 µM). Further, the LD50 at 336 h in series [3] came to 22.5 mg/kg. Moreover, the selectivity ratio in series [3] is 1.46; in series [4] it was 3.02. Further, the ED50 in series [7] came to 5.7 mg/kg. In series [12], this compound had a solubility of over 20 mg/mL.
Turning to `CC1=C(NCCSSCC(=O)O[C@H]2CC[C@H]3[C@@H]4CCc5cc(OC(=O)c6ccccc6)ccc5[C@H]4CC[C@]23C)C(=O)C2=C(C1=O)N1C[C@H]3[C@H](N3C)[C@]1(O)[C@H]2COC(N)=O` (stereo partly drawn) [Compound 28, 7-N-[2-[[[[17β-(3-benzoyloxy-1,3, 5(10)-estratrienyl)oxy]carbonyl]methyl]dithio]ethyl]mitomycin D], the “C.I. (LD50/ED50) (in words)” value in series [2] is recorded as “superior to mitomycin C”. Also, in series [3], the LD50 at 336 h amounted to 75 mg/kg and the selectivity ratio is 2.53. The selectivity ratio in series [4] turned out to be 1.43. Moreover, the “WBC4000/ED50 (in words)” value in series [5] is given as “superior to mitomycin C”. Moreover, the ED50 in series [7] turned out to be 9.9 mg/kg. The “ILS* (ratio of ILS % to that of mitomycin C)” value in [8] (dose 25 mg/kg) is over 1.67. Further, the “lipophilicity (in words)” value in series [14] is listed as “superior to mitomycin C”.
With `CC1=C(/C=C/C(C)=C/C=C/C(C)=C/C(=O)NCCSSc2ccccn2)C(C)(C)CCC1` [Compound "m", N-2-(2-pyridyldithio)ethylretinamide], the “stability (in words)” value in series [15] was “unstable”.
Regarding `CO[C@@]12[C@H](COC(N)=O)C3=C(C(=O)C(C)=C(NCCSSCCC(=O)O[C@H]4CC[C@H]5[C@@H]6CCc7cc(OC(=O)c8ccccc8)ccc7[C@H]6CC[C@]45C)C3=O)N1C[C@@H]1N[C@@H]12` [Compound 27, 7-N-[2-[[2-[[17β-(3-benzoyloxy-1,3, 5(10)-estratrienyl)oxy]carbonyl]ethyl]dithio]ethyl]mitomycin C], in series [2], the “C.I. (LD50/ED50) (in words)” value is “superior to mitomycin C”. This compound also displayed an LD50 at 336 h in series [3] of 22.5 mg/kg. The selectivity ratio in series [3] amounted to 1.63; in series [4], 2.43. The “WBC4000/ED50 (in words)” value in series [5] is listed as “superior to mitomycin C”. The ED50 in series [7] came out at 4.6 mg/kg. The “ILS* (ratio of ILS % to that of mitomycin C)” value in [8] (dose 12.5 mg/kg) is given as over 1.53. Also, in [14], the “lipophilicity (in words)” value is recorded as “superior to mitomycin C”.
As to `CO[C@@]12[C@H](COC(N)=O)C3=C(C(=O)C(C)=C(NCCSSCC(=O)O[C@H]4CC[C@H]5[C@@H]6CCc7cc(OC(=O)c8ccccc8)ccc7[C@H]6CC[C@]45C)C3=O)N1C[C@@H]1N[C@@H]12` [Compound 26, 7-N-[2-[[[[17β-(3-benzoyloxy-1,3, 5(10)-estratrienyl)oxy]carbonyl]methyl]dithio]ethyl]mitomycin C], the “C.I. (LD50/ED50) (in words)” value in series [2] is recorded as “superior to mitomycin C”. Besides, in [3], the LD50 at 336 h was 18.8 mg/kg and the selectivity ratio was 1.27. For the same compound, in series [4], the selectivity ratio was determined as 2.57. The “WBC4000/ED50 (in words)” value in [5] is “superior to mitomycin C”. The ED50 in [7] turned out to be 5 mg/kg. The “ILS* (ratio of ILS % to that of mitomycin C)” value in series [8] (dose 6.25 mg/kg) was over 1.08. Moreover, in series [14], the “lipophilicity (in words)” value was “superior to mitomycin C”.
In the case of `Cc1c(C)c2c(c(C)c1OC(=O)CCC(=O)NCCSSc1ccccn1)CC[C@@](C)(CCC[C@H](C)CCC[C@H](C)CCCC(C)C)O2` [Compound "n"], in [15], the “stability (in words)” value is “relatively stable”.
`CO[C@]12[C@H](COC(N)=O)[C@H]3C(=O)C(N)=C(C)C(=O)[C@]34N3[C@H]1[C@@H]3CN24` [MM-C 2, albomitomycin C, reference compound] came in with an LD50 ip in [2] (ddy mice, single i.p., 14 days, Behren Korber's method) of under 12.0 mg/kg. The “(C.I.)* = (LD50/ED50)/[(LD50/ED50) of MMC1]” value in series [2] (relative to mitomycin C, ip) is 1.16. Also, the “(WBC4000/ED50)* = (WBC4000/ED50)/[(WBC4000/ED50) of MMC1]” value in series [5] (relative to mitomycin C, ip, 4 days after dosing) amounted to 0.95. The ED50 ip in series [7] (ddy mice, i.p. 24 h after implantation, 50% reduction of tumour volume at day 7) was 5.4 mg/kg.
